Measurements published in paper PMC8286840, “Identifying SARS-CoV-2 antiviral compounds by screening for small molecule inhibitors of Nsp3 papain-like protease” (Biochemical Journal, 2021).
Counter-ions that a name gives are not always drawn. Like-named read-outs stand apart in the source and are kept apart here.

Assays:
[1] = molecular target: T1, SARS-CoV-2 PLpro (nsp3 1564–1878) (Severe acute respiratory syndrome coronavirus 2, UniProt P0DTD1); assay: biochemical; set-up: FRET-quenched peptide (Pro3) cleavage by PLpro, 10 min pre-incubation, slope over 20 min, normalised to no-compound control; conditions: high concentration screen
[2] = molecular target: T1, SARS-CoV-2 PLpro (nsp3 1564–1878); assay: biochemical; set-up: FRET-quenched peptide (Pro3) cleavage by PLpro, 10 min pre-incubation, slope over 20 min, normalised to no-compound control; conditions: low concentration screen
[3] = Well no.=5339, read-out: % of control remaining
[4] = Well no.=8291, read-out: % of control remaining
[5] = Well no.=3278, read-out: % of control remaining
[6] = Well no.=5164, read-out: % of control remaining
[7] = Well no.=6662, read-out: % of control remaining
[8] = Well no.=5062, read-out: % of control remaining
[9] = Well no.=6465, read-out: % of control remaining
[10] = Well no.=5357, read-out: % of control remaining
[11] = read-out: % of control remaining, Well no.=1861
[12] = read-out: % of control remaining, Well no.=6467
[13] = Well no.=6653, read-out: % of control remaining
[14] = Well no.=6367, read-out: % of control remaining
[15] = Well no.=5319, read-out: % of control remaining
[16] = Well no.=7181, read-out: % of control remaining
[17] = Well no.=5139, read-out: % of control remaining
[18] = Well no.=8295, read-out: % of control remaining
[19] = Well no.=447, read-out: % of control remaining
[20] = Well no.=1976, read-out: % of control remaining
[21] = Well no.=592, read-out: % of control remaining
[22] = Well no.=6497, read-out: % of control remaining
[23] = Well no.=7840, read-out: % of control remaining
[24] = Well no.=597, read-out: % of control remaining
[25] = Well no.=2369, read-out: % of control remaining
[26] = Well no.=394, read-out: % of control remaining
[27] = Well no.=1804, read-out: % of control remaining
[28] = Well no.=2096, read-out: % of control remaining
[29] = Well no.=5268, read-out: % of control remaining
[30] = Well no.=5309, read-out: % of control remaining
[31] = Well no.=5307, read-out: % of control remaining
[32] = Well no.=580, read-out: % of control remaining
[33] = Well no.=1978, read-out: % of control remaining
[34] = Well no.=5360, read-out: % of control remaining
[35] = Well no.=3547, read-out: % of control remaining
[36] = Well no.=1868, read-out: % of control remaining
[37] = Well no.=5145, read-out: % of control remaining
[38] = Well no.=532, read-out: % of control remaining
[39] = Well no.=1984, read-out: % of control remaining

CC1(C)O[C@@H]2C[C@H]3[C@@H]4CCC5=CC(=O)C=C[C@]5(C)[C@H]4[C@@H](O)C[C@]3(C)[C@]2(C(=O)CO)O1 [Desonide]
remaining activity at 3.75 µM [1, 3]: 84.9% | remaining activity at 3.75 µM [1, 4]: 96% | remaining activity at 1.25 µM [2, 3]: 95.1% | remaining activity at 1.25 µM [2, 4]: 99.7%

c1ccc2c(c1)CN1CCCC1=N2 [Desoxypeganine]
remaining activity at 3.75 µM [1, 5]: 97.7% | remaining activity at 1.25 µM [2, 5]: 98%

CN(C)CC(c1ccc(O)cc1)C1(O)CCCCC1 (centres unmarked) [Desvenlafaxine]
remaining activity at 3.75 µM [1, 6]: 96.9% | remaining activity at 1.25 µM [2, 6]: 94.5%

Cc1cccc(Cc2c[nH]cn2)c1C [Detomidine (hydrochloride)]
remaining activity at 3.75 µM [1, 7]: 102% | remaining activity at 1.25 µM [2, 7]: 98.9%

Cc1cccc(Cc2c[nH]cn2)c1C [Detomidine HCl]
remaining activity at 3.75 µM [1, 8]: 105% | remaining activity at 1.25 µM [2, 8]: 103%

CC(=O)OCC(=O)[C@@]1(O)[C@H](C)C[C@H]2[C@@H]3CCC4=CC(=O)C=C[C@]4(C)[C@@]3(F)[C@@H](O)C[C@@]21C [Dexamethasone (acetate)]
remaining activity at 3.75 µM [1, 9]: 106% | remaining activity at 1.25 µM [2, 9]: 107%

CC(=O)OCC(=O)[C@@]1(O)[C@H](C)C[C@H]2[C@@H]3CCC4=CC(=O)C=C[C@]4(C)[C@@]3(F)[C@@H](O)C[C@@]21C [Dexamethasone acetate]
remaining activity at 3.75 µM [1, 10]: 98% | remaining activity at 1.25 µM [2, 10]: 99.3%

C[C@@H]1C[C@H]2[C@@H]3CCC4=CC(=O)C=C[C@]4(C)[C@@]3(F)[C@@H](O)C[C@]2(C)[C@@]1(O)C(=O)CO [Dexamethasone]
remaining activity at 3.75 µM [1, 11]: 100% | remaining activity at 3.75 µM [1, 12]: 98.7% | remaining activity at 1.25 µM [2, 11]: 99.1% | remaining activity at 1.25 µM [2, 12]: 96.6%

CN(C)CC[C@@H](c1ccc(Cl)cc1)c1ccccn1 [Dexchlorpheniramine (maleate)]
remaining activity at 3.75 µM [1, 13]: 101% | remaining activity at 1.25 µM [2, 13]: 103%

Cc1cccc([C@H](C)c2c[nH]cn2)c1C [Dexmedetomidine (hydrochloride)]
remaining activity at 3.75 µM [1, 14]: 103% | remaining activity at 1.25 µM [2, 14]: 102%

Cc1cccc([C@H](C)c2c[nH]cn2)c1C [Dexmedetomidine]
remaining activity at 3.75 µM [1, 15]: 95.8% | remaining activity at 1.25 µM [2, 15]: 94.4%

CCCN[C@@H]1CCc2nc(N)sc2C1 [Dexpramipexole (dihydrochloride)]
remaining activity at 3.75 µM [1, 16]: 93.6% | remaining activity at 1.25 µM [2, 16]: 98.2%

C[C@@H](CN1CC(=O)NC(=O)C1)N1CC(=O)NC(=O)C1 [Dexrazoxane HCl]
remaining activity at 3.75 µM [1, 17]: 104% | remaining activity at 1.25 µM [2, 17]: 101%

COc1ccc2c(c1)[C@]13CCCC[C@@H]1[C@H](C2)N(C)CC3 [Dextromethorphan (hydrobromide hydrate)]
remaining activity at 3.75 µM [1, 18]: 96.5% | remaining activity at 1.25 µM [2, 18]: 101%

COc1ccc2c(c1)[C@]13CCCC[C@@H]1[C@H](C2)N(C)CC3 [Dextromethorphan hydrobromide monohydrate]
remaining activity at 3.75 µM [1, 19]: 104% | remaining activity at 1.25 µM [2, 19]: 100%

COc1ccc2c(c1)[C@]13CCCC[C@@H]1[C@H](C2)N(C)CC3 [Dextromethorphan]
remaining activity at 3.75 µM [1, 20]: 101% | remaining activity at 1.25 µM [2, 20]: 98.8%

CN1CC[C@@]23CCCC[C@@H]2[C@@H]1Cc1ccc(O)cc13 [Dextrorphan D-tartrate]
remaining activity at 3.75 µM [1, 21]: 103% | remaining activity at 1.25 µM [2, 21]: 101%

OC[C@H]1OC(O)[C@H](O)[C@@H](O)[C@@H]1O (some centres unmarked) [Dextrose]
remaining activity at 3.75 µM [1, 22]: 99.3% | remaining activity at 1.25 µM [2, 22]: 97.3%

CC(=O)N(C(C)=O)c1ccc(N=Nc2ccccc2C)cc1C [Diacetazotol]
remaining activity at 3.75 µM [1, 23]: 97.2% | remaining activity at 1.25 µM [2, 23]: 98.8%

O=c1c2ccccc2[nH]c(=S)n1CCN1CCC(=C(c2ccc(F)cc2)c2ccc(F)cc2)CC1 [Diacylglycerol Kinase Inhibitor II]
remaining activity at 3.75 µM [1, 24]: 95.5% | remaining activity at 3.75 µM [1, 25]: 99.1% | remaining activity at 1.25 µM [2, 24]: 93.5% | remaining activity at 1.25 µM [2, 25]: 98.2%

CC1=Nc2ccc(Cl)cc2S(=O)(=O)N1 [Diazoxide]
remaining activity at 3.75 µM [1, 26]: 101% | remaining activity at 3.75 µM [1, 27]: 93.4% | remaining activity at 1.25 µM [2, 26]: 105% | remaining activity at 1.25 µM [2, 27]: 92.9%

CN(C)CCN1C(=O)c2ccccc2N(C)c2ccccc21 [Dibenzepine]
remaining activity at 3.75 µM [1, 28]: 99.6% | remaining activity at 1.25 µM [2, 28]: 97%

N#CC(c1ccc(Cl)cc1)c1c(Cl)cc(-n2ncc(=O)[nH]c2=O)cc1Cl (centres unmarked) [Diclazuril]
remaining activity at 3.75 µM [1, 29]: 96.8% | remaining activity at 1.25 µM [2, 29]: 91.9%

O=C(O)Cc1ccccc1Nc1c(Cl)cccc1Cl [Diclofenac Diethylamine]
remaining activity at 3.75 µM [1, 30]: 98.6% | remaining activity at 1.25 µM [2, 30]: 103%

O=C(O)Cc1ccccc1Nc1c(Cl)cccc1Cl [Diclofenac Potassium]
remaining activity at 3.75 µM [1, 31]: 100% | remaining activity at 1.25 µM [2, 31]: 101%

O=C(O)Cc1ccccc1Nc1c(Cl)cccc1Cl [Diclofenac sodium]
remaining activity at 3.75 µM [1, 32]: 96.6% | remaining activity at 1.25 µM [2, 32]: 94%

O=C(O)Cc1ccccc1Nc1c(Cl)cccc1Cl [Diclofenac]
remaining activity at 3.75 µM [1, 33]: 102% | remaining activity at 1.25 µM [2, 33]: 102%

Cc1onc(-c2c(Cl)cccc2Cl)c1C(=O)N[C@@H]1C(=O)N2[C@@H]1SC(C)(C)[C@@H]2C(=O)O [Dicloxacillin Sodium]
remaining activity at 3.75 µM [1, 34]: 89.6% | remaining activity at 1.25 µM [2, 34]: 90.3%

O=c1oc2ccccc2c(O)c1Cc1c(O)c2ccccc2oc1=O [Dicoumarol]
remaining activity at 3.75 µM [1, 35]: 105% | remaining activity at 1.25 µM [2, 35]: 104%

O=c1[nH]cnc2c1ncn2[C@H]1CC[C@@H](CO)O1 [Didanosine]
remaining activity at 3.75 µM [1, 36]: 104% | remaining activity at 1.25 µM [2, 36]: 97.7%

C[C@]12CCC3=C4CCC(=O)C=C4CC[C@H]3[C@@H]1CC[C@@]2(O)CC#N [Dienogest]
remaining activity at 3.75 µM [1, 37]: 102% | remaining activity at 1.25 µM [2, 37]: 102%

O=C(O)CN(CCN(CC(=O)O)CC(=O)O)CCN(CC(=O)O)CC(=O)O [Diethylenetriaminepentaacetic acid]
remaining activity at 3.75 µM [1, 38]: 97.9% | remaining activity at 1.25 µM [2, 38]: 100%

O=C(O)c1cc(-c2ccc(F)cc2F)ccc1O [Diflunisal]
remaining activity at 3.75 µM [1, 39]: 102% | remaining activity at 1.25 µM [2, 39]: 102%
